# Measured values as given in publication PMC5457628, “Inhibitors of ubiquitin E3 ligase as potential new antimalarial drug leads” (BMC Pharmacology & Toxicology, 2017).
# Read-outs that look alike come from different tables or passages of the source.
# Key:
# [1] = system: P. falciparum D6 (CQ-sensitive strain); test: Antimalarial SYBR Green I-based fluorescence assay, PfD6; format: cell-based; settings: Plasmodium falciparum, D6
# Procedure: The medium of the culture was replaced every 48 h, flushed with a gas mixture of 90% N2, 5% CO2 and 5% O2 and incubated at 37 °C.
# Only ring stages of the parasite were counted and adjusted to 2% parasitemia with 2% hematocrit. Stock solutions (10 mM) of the test inhibitors were prepared in DMSO. […] The maximum concentrations of E3 ligase inhibitors and CQ used in the assay were 50 μM and 500 nM respectively. The plates were incubated at 37 °C in 5% CO2, 5% O2, and 90% N2 environment for 48, 72, 96 and 120 h. After incubation, SYBR green with RBC lysis buffer was added to each well, and the plates were incubated for 1 h in the dark at room temperature. The standard antimalarial agent, CQ was tested as the positive control, and DMSO was tested as vehicle control. […] The anti-malarial activity (expressed as IC50 values) was determined by the dose-response analysis with XLfit©.
# [2] = system: P. falciparum W2 (CQ-resistant strain); test: Antimalarial SYBR Green I-based fluorescence assay, PfW2; format: cell-based; settings: Plasmodium falciparum, W2
# Procedure: CQ-sensitive (D6, Sierra Leone) and -resistant (W2, Indochina) strains of P. falciparum cultures were obtained from Malaria Research and Reference Reagent Resource Center (MR4), USA and maintained at 5% hematocrit in complete culture medium (RPMI 1640 supplemented with 60 μg/mL amikacin, 27 mM NaHCO3 and 10% heat-inactivated normal human type A+ serum). The medium of the culture was replaced every 48 h, flushed with a gas mixture of 90% N2, 5% CO2 and 5% O2 and incubated at 37 °C.
# CQ-sensitive P. falciparum D6 strain (Pf D6) and CQ-resistant P. falciparum W2 strain (Pf W2) were grown in RPMI 1640 medium supplemented with amikacin (60 μg/mL), NaHCO3 (27 mM) and 10% heat-inactivated normal human type A+ serum. Only ring stages of the parasite were counted and adjusted to 2% parasitemia with 2% hematocrit. Stock solutions (10 mM) of the test inhibitors were prepared in DMSO. The compounds were serially diluted in serum-free RPMI-1640 medium for testing at eight concentrations. The maximum concentrations of E3 ligase inhibitors and CQ used in the assay were 50 μM and 500 nM respectively. The plates were incubated at 37 °C in 5% CO2, 5% O2, and 90% N2 environment for 48, 72, 96 and 120 h. After incubation, SYBR green with RBC lysis buffer was added to each well, and the plates were incubated for 1 h in the dark at room temperature. The standard antimalarial agent, CQ was tested as the positive control, and DMSO was tested as vehicle control. Standard fluorescence was measured Fluostar Galaxy microplate reader (BMG Lab Technologies) at excitation wavelength of 485 nm and emission wavelength of 535 nm. The anti-malarial activity (expressed as IC50 values) was determined by the dose-response analysis with XLfit©.
# [3] = In vitro cytotoxicity assay (AlamarBlue) against PMA-transformed THP1 cells; format: cell-based; settings: human, PMA-transformed non-dividing THP1, mean ± SEM of duplicates, NC = not cytotoxic at highest concentration tested (50 μM inhibitors, 500 nM CQ), read-out: THP1 Cell Cytotoxicity (IC50)
# Procedure: The E3 ligase inhibitors were also tested against Vero cells (African green monkey kidney epithelial cells) and transformed non-dividing human monocytic (THP1) cells. The methods described earlier were used to measure cytotoxicity for Vero and THP1 cells. In brief, four days’ old Vero and THP1 cell cultures were diluted with RPMI medium to 25,000 cells/mL. Vero cells (100 μL per well) were seeded in a clear 96 well culture plate and incubated for 24 h at 37 °C in a 5% CO2 incubator to obtain confluent cells. Phorbol 12-myristate 13-acetate (PMA) (25 ng/mL) was added to THP1 cell culture to transform the cells to adherent macrophages. PMA treated THP1cells were dispensed into clear 96 well culture plates (200 μL/well; 25,000 cells/mL) and incubated at 37 °C in a 5% CO2 incubator for overnight. The test compounds were prepared in DMSO at 10 mM concentration. The compounds were serially diluted in RPMI medium with 2% FBS in the separate daughter plates, for testing at eight concentrations. The cells were washed with culture medium, replaced with the fresh medium and test compounds were added. The maximum concentration of E3 ligase inhibitors and CQ used in these assays were 50 μM and 500 nM respectively. DMSO was tested as vehicle control in these assays. The plates were incubated further in a CO2 incubator at 37 °C for 48 h. After 48 h, 10 μL of AlamarBlue® was added to each well, and the plates were incubated in a CO2 incubator at 37 °C for overnight. […] IC50 values were computed by analyzing dose-response curves with XLfit©.
# [4] = target: MDM2; settings: read-out: Ki, MDM 2 inhibitor; cited from earlier work
# [5] = In vitro cytotoxicity assay (AlamarBlue) against Vero cells; format: cell-based; settings: African green monkey, Vero cells (kidney epithelial cells), mean ± SEM of duplicates, NC = not cytotoxic at highest concentration tested (50 μM inhibitors, 500 nM CQ), read-out: Vero Cell Cytotoxicity (IC50)
# Procedure: The E3 ligase inhibitors were also tested against Vero cells (African green monkey kidney epithelial cells) and transformed non-dividing human monocytic (THP1) cells. The methods described earlier were used to measure cytotoxicity for Vero and THP1 cells. In brief, four days’ old Vero and THP1 cell cultures were diluted with RPMI medium to 25,000 cells/mL. Vero cells (100 μL per well) were seeded in a clear 96 well culture plate and incubated for 24 h at 37 °C in a 5% CO2 incubator to obtain confluent cells. Phorbol 12-myristate 13-acetate (PMA) (25 ng/mL) was added to THP1 cell culture to transform the cells to adherent macrophages. PMA treated THP1cells were dispensed into clear 96 well culture plates (200 μL/well; 25,000 cells/mL) and incubated at 37 °C in a 5% CO2 incubator for overnight. The test compounds were prepared in DMSO at 10 mM concentration. The compounds were serially diluted in RPMI medium with 2% FBS in the separate daughter plates, for testing at eight concentrations. The cells were washed with culture medium, replaced with the fresh medium and test compounds were added. The maximum concentration of E3 ligase inhibitors and CQ used in these assays were 50 μM and 500 nM respectively. DMSO was tested as vehicle control in these assays. The plates were incubated further in a CO2 incubator at 37 °C for 48 h. […]
# [6] = 48 h incubation, mean ± SEM of duplicates, NA = not active at highest concentration tested (50 μM inhibitors, 500 nM CQ), read-out: P. falciparum D6 (CQ-sensitive strain) IC50
# [7] = 72 h incubation, mean ± SEM of duplicates, NA = not active at highest concentration tested (50 μM inhibitors, 500 nM CQ), read-out: P. falciparum D6 (CQ-sensitive strain) IC50
# [8] = 48 h incubation, mean ± SEM of duplicates, NA = not active at highest concentration tested (50 μM inhibitors, 500 nM CQ), read-out: P. falciparum W2 (CQ-resistant strain) IC50
# [9] = 72 h incubation, mean ± SEM of duplicates, NA = not active at highest concentration tested (50 μM inhibitors, 500 nM CQ), read-out: P. falciparum W2 (CQ-resistant strain) IC50
# [10] = 96 h incubation, mean ± SEM of duplicates, NA = not active at highest concentration tested (50 μM inhibitors, 500 nM CQ), read-out: P. falciparum W2 (CQ-resistant strain) IC50
# [11] = 120 h incubation, mean ± SEM of duplicates, NA = not active at highest concentration tested (50 μM inhibitors, 500 nM CQ), read-out: P. falciparum W2 (CQ-resistant strain) IC50
"IC50 [1, 6]","IC50 [1, 7]","IC50 [2, 8]","IC50 [2, 9]","IC50 ([1]; 48-120 h, read-out: IC50 against PfD6)","IC50 ([1]; 96 h incubation, mean ± SEM of duplicates, NA = not active at highest concentration tested (50 μM inhibitors, 500 nM CQ), read-out: P. falciparum D6 (CQ-sensitive strain) IC50)","IC50 ([1]; 120 h incubation, mean ± SEM of duplicates, NA = not active at highest concentration tested (50 μM inhibitors, 500 nM CQ), read-out: P. falciparum D6 (CQ-sensitive strain) IC50)","IC50 ([2]; 48-120 h, read-out: IC50 against PfW2)","IC50 [2, 10]","IC50 [2, 11]",SMILES,IC50 at 48 h [3],Ki [4],IC50 at 48 h [5]
32.2 ± 4.57 µM,37 ± 1.8 µM,28.7 ± 4.01 µM,39 ± 2.71 µM,–,–,–,–,–,–,Cc1ccc2ccc(C(Nc3ccccc3)c3ccccc3)c(O)c2n1 (centres unmarked) [NSC 66811],37.8 ± 4.1 µM,0.12 µM,–
5.24 ± 0.2 µM,4.8 ± 0.05 µM,2.07 ± 0.22 µM,2.63 ± 0.05 µM,< 6 µM,3.09 ± 0.08 µM,2.52 ± 0.39 µM,< 6 µM,2.91 ± 0.03 µM,3.23 ± 0.03 µM,CCc1c2ccccc2c(CSC(=N)N)c2ccccc12 [NSC 146109],1.2 ± 0.28 µM,–,5.27 ± 0.05 µM
12.1 ± 0.68 µM,49 ± 0.94 µM,20.6 ± 5.19 µM,23.7 ± 3.53 µM,–,–,–,–,45.8 ± 0.09 µM,48.6 ± 0.49 µM,O=C1c2ccccc2-c2nc3nonc3nc21 [SMER 3],5.8 ± 0.28 µM,–,16 ± 0.55 µM
